Experimental data from paper PMC10714399, “Open Source Antibiotics: Simple Diarylimidazoles Are Potent against Methicillin-Resistant Staphylococcus aureus” (ACS Infectious Diseases, 2023).
In brackets after ≈: the same amount, converted by molar mass.

Tested on: Staphylococcus aureus ATCC 43300 MRSA
Test: CO-ADD antibacterial assay (growth inhibition, MIC), MRSA
Assay type: cell-based
Settings: read-out: MRSA MIC (CO-ADD)
Method in brief: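 MIC was determined by 8-point 2-fold dilution from 32 µg/mL or 20 µM (≤0.5% DMSO), in duplicate, in cation-adjusted Mueller Hinton broth. Bacteria were seeded at mid-log phase (5×10^5 CFU/mL) and incubated 18 h at 37 °C without shaking. Growth was read by OD600, and MIC was taken as the lowest concentration giving ≥80% inhibition.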

| MIC | SMILES |
| --- | --- |
| 2 µg/mL (≈ 6.3 µM) | c1ccc(-c2nc3n(c2-c2ccc4sccc4c2)CCC3)nc1 [OSA_000822] |
| 4 µg/mL (≈ 13.3 µM) | c1ccc(-c2nc3n(c2-c2ccc4occc4c2)CCC3)nc1 [compound 821] |
